Earlier results on one molecule are cited in patent US8507698B2, “Artemisinin derivatives for the treatment of melanoma” (Lachifarma S.R.L. Laboratorio Chimico Farmaceutico Salentino, priority 2007, dated 2013).

pIC50: −log10 of the molar value.

The subject of the series is cell line of oral cancer (YD-10B). Conditions: read-out: CI50 (the source's name).

Turning to `CC(=O)O[C@H]1C(=O)[C@@]2(C)[C@H]([C@H](OC(=O)c3ccccc3)[C@]3(O)C[C@H](OC(=O)[C@H](O)[C@@H](NC(=O)c4ccccc4)c4ccccc4)C(C)=C1C3(C)C)[C@]1(OC(C)=O)CO[C@@H]1C[C@@H]2O` [paclitaxel], the pIC50 was 4.88.
